The series deals with luciferase gene expression in HEK 293 cells in response to Comp. 004. Nature of the series: Screen of riboswitch constructs with 12C6-1 variant aptamers (libraries N1-N5) against Comp. 004, luciferase in HEK 293 cells. It is filed as cell-based, human. The settings on record: library N5 variant aptamers (L5, X16-X21 randomized) of 12C6-1 in riboswitch constructs; in response to Comp. 004 treatment; HEK 293 cells. Summed up: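 Riboswitch constructs carrying 12C6-1 aptamer variants, randomized in J2-4, J2-3/J3-3a/J3a-2/P3, L3a, J4-5/J5-4/P4 or L5 regions (libraries N1-N5), cloned into an intron-exon-intron cassette driving luciferase. Screened in HEK 293 cells with 25 µM Comp. 004; read-out is fold induction of gene expression versus parent Luci-12C6-1.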
On to “N5_1C9 (CTGGGGAGTCCT; chemistry not given here)”, for which the “Fold (induction of luciferase gene expression)” value (“Fold” below) amounted to 915.3 fold.

Regarding “N5_1C10 (CTGGGGAGTCCT; chemistry not given here)”, the “Fold” value stood at 693.8 fold.

Turning to “N5_1C11 (CTGGGGAGTCCT; chemistry not given here)”, the “Fold” value is 484.2 fold.

In the case of “N5_1D1 (CTGGGGAGTCCT; chemistry not given here)”, the “Fold” value was found to be 321.6 fold.

For “N5_1D2 (CTGGGGAGTCCT; chemistry not given here)”, the “Fold” value was determined as 561.3 fold.

As for “N5_1D3 (CTGGGGAGTCCT; chemistry not given here)”, the “Fold” value is listed as 697.1 fold.

As for “N5_1D4 (CTGGGGAGTCCT; chemistry not given here)”, the “Fold” value came to 522.9 fold.

Consider “N5_1D5 (CTGGGGAGTCCT; chemistry not given here)”, for which the “Fold” value came to 841.7 fold.

Take “N5_1D6 (CTGGGGAGTCCT; chemistry not given here)”: the “Fold” value amounted to 684.9 fold.

With “N5_1D8 (CTGGGGAGTCCT; chemistry not given here)”, the “Fold” value came out at 383.5 fold.

Turning to “N5_1D10 (CTGGGGAGTCCT; chemistry not given here)”, the “Fold” value was determined as 762.7 fold.

As to “N5_1D11 (CTGGGGAGTCCT; chemistry not given here)”, the “Fold” value is given as 4.8 fold.

Consider “N5_1D12 (CTGGGGAGTCCT; chemistry not given here)”, for which the “Fold” value is given as 3.6 fold.

For the substance “N5_1E1 (CTGGGGAGTCCT; chemistry not given here)”, the “Fold” value amounted to 566.4 fold.

Turning to “N5_1E2 (CTGGGGAGTCCT; chemistry not given here)”, the “Fold” value is 728.6 fold.

Take “N5_1E4 (CTGGGGAGTCCT; chemistry not given here)”: the “Fold” value is 834.9 fold.

For “N5_1E5 (CTGGGGAGTCCT; chemistry not given here)”, the “Fold” value is listed as 681.3 fold.

As to “N5_1E6 (CTGGGGAGTCCT; chemistry not given here)”, the “Fold” value is listed as 365.1 fold.

As for “N5_1E8 (CTGGGGAGTCCT; chemistry not given here)”, the “Fold” value is 691.8 fold.

Consider “N5_1E9 (CTGGGGAGTCCT; chemistry not given here)”, for which the “Fold” value is 699.7 fold.

Consider “N5_1E10 (CTGGGGAGTCCT; chemistry not given here)”, for which the “Fold” value is listed as 1026.1 fold.

Consider “N5_1E11 (CTGGGGAGTCCT; chemistry not given here)”, for which the “Fold” value was 1095.6 fold.

Consider “N5_1E12 (CTGGGGAGTCCT; chemistry not given here)”, for which the “Fold” value came out at 1588.2 fold.

Turning to “N5_1F1 (CTGGGGAGTCCT; chemistry not given here)”, the “Fold” value turned out to be 557.2 fold.

“N5_1F2 (CTGGGGAGTCCT; chemistry not given here)”: the “Fold” value came to 415.1 fold.

“N5_1F3 (CTGGGGAGTCCT; chemistry not given here)”: the “Fold” value stood at 212.8 fold.

Regarding “N5_1F4 (CTGGGGAGTCCT; chemistry not given here)”, the “Fold” value amounted to 958.5 fold.

On to “N5_1F6 (CTGGGGAGTCCT; chemistry not given here)”, for which the “Fold” value amounted to 247.6 fold.

Take “N5_1F9 (CTGGGGAGTCCT; chemistry not given here)”: the “Fold” value is on record as 685.1 fold.

Regarding “N5_1F10 (CTGGGGAGTCCT; chemistry not given here)”, the “Fold” value is given as 1071.3 fold.

In the case of “N5_1F12 (CTGGGGAGTCCT; chemistry not given here)”, the “Fold” value is 1057.8 fold.

For the substance “N5_1G2 (CTGGGGAGTCCT; chemistry not given here)”, the “Fold” value was 517.7 fold.

As to “N5_1G4 (CTGGGGAGTCCT; chemistry not given here)”, the “Fold” value amounted to 86.0 fold.

For the substance “N5_1G5 (CTGGGGAGTCCT; chemistry not given here)”, the “Fold” value is given as 804.6 fold.

Consider “N5_1G6 (CTGGGGAGTCCT; chemistry not given here)”, for which the “Fold” value is 1311.6 fold.

On to “N5_1G8 (CTGGGGAGTCCT; chemistry not given here)”, for which the “Fold” value worked out at 888.7 fold.

On to “N5_1G9 (CTGGGGAGTCCT; chemistry not given here)”, for which the “Fold” value was found to be 1230.3 fold.

With “N5_1G10 (CTGGGGAGTCCT; chemistry not given here)”, the “Fold” value was 1000.2 fold.

Turning to “N5_1G11 (CTGGGGAGTCCT; chemistry not given here)”, the “Fold” value came to 789.0 fold.

“N5_1H1 (CTGGGGAGTCCT; chemistry not given here)”: the “Fold” value is given as 84.1 fold.

As to “N5_1H2 (CTGGGGAGTCCT; chemistry not given here)”, the “Fold” value stood at 386.6 fold.

As to “N5_1H3 (CTGGGGAGTCCT; chemistry not given here)”, the “Fold” value was 764.7 fold.

For the substance “N5_1H4 (CTGGGGAGTCCT; chemistry not given here)”, the “Fold” value is recorded as 482.5 fold.

“N5_1H6 (CTGGGGAGTCCT; chemistry not given here)”: the “Fold” value is on record as 654.9 fold.

For “N5_1H7 (CTGGGGAGTCCT; chemistry not given here)”, the “Fold” value is reported as 1032.1 fold.

In the case of “N5_1H8 (CTGGGGAGTCCT; chemistry not given here)”, the “Fold” value is 622.6 fold.

Take “N5_1H9 (CTGGGGAGTCCT; chemistry not given here)”: the “Fold” value was found to be 714.2 fold.

Consider “N5_1H10 (CTGGGGAGTCCT; chemistry not given here)”, for which the “Fold” value came to 781.1 fold.

Take “N5_1H11 (CTGGGGAGTCCT; chemistry not given here)”: the “Fold” value is 413.6 fold.

“N5_2B5 (CTGGGGAGTCCT; chemistry not given here)”: the “Fold” value was 1107.3 fold.

With “N5_2B11 (CTGGGGAGTCCT; chemistry not given here)”, the “Fold” value was 1009.4 fold.

Turning to “N5_2C2 (CTGGGGAGTCCT; chemistry not given here)”, the “Fold” value is given as 894.7 fold.

On to “N5_2C5 (CTGGGGAGTCCT; chemistry not given here)”, for which the “Fold” value is recorded as 1055.1 fold.

As to “N5_2D8 (CTGGGGAGTCCT; chemistry not given here)”, the “Fold” value came to 1047.3 fold.

For the substance “N5_2D9 (CTGGGGAGTCCT; chemistry not given here)”, the “Fold” value is given as 735.9 fold.

Take “N5_2D10 (CTGGGGAGTCCT; chemistry not given here)”: the “Fold” value is on record as 884.5 fold.

In the case of “N5_2E6 (CTGGGGAGTCCT; chemistry not given here)”, the “Fold” value is listed as 685.6 fold.

For the substance “N5_2E11 (CTGGGGAGTCCT; chemistry not given here)”, the “Fold” value is given as 1038.1 fold.

Consider “N5_2F10 (CTGGGGAGTCCT; chemistry not given here)”, for which the “Fold” value is listed as 1014.6 fold.

For “N5_2F12 (CTGGGGAGTCCT; chemistry not given here)”, the “Fold” value is 1100.0 fold.

For “N5_2G5 (CTGGGGAGTCCT; chemistry not given here)”, the “Fold” value worked out at 715.9 fold.

“N5_2G10 (CTGGGGAGTCCT; chemistry not given here)”: the “Fold” value was found to be 1249.7 fold.

Turning to “N5_3A2 (CTGGGGAGTCCT; chemistry not given here)”, the “Fold” value came out at 718.0 fold.

“N5_3A3 (CTGGGGAGTCCT; chemistry not given here)”: the “Fold” value came out at 1066.3 fold.

Take “N5_3C8 (CTGGGGAGTCCT; chemistry not given here)”: the “Fold” value was 835.1 fold.

With “N5_3C10 (CTGGGGAGTCCT; chemistry not given here)”, the “Fold” value is reported as 751.6 fold.

For “N5_3D3 (CTGGGGAGTCCT; chemistry not given here)”, the “Fold” value came to 1222.7 fold.

In the case of “N5_3D8 (CTGGGGAGTCCT; chemistry not given here)”, the “Fold” value is listed as 824.4 fold.

Take “N5_3F9 (CTGGGGAGTCCT; chemistry not given here)”: the “Fold” value was 909.7 fold.

As to “N5_3F10 (CTGGGGAGTCCT; chemistry not given here)”, the “Fold” value came out at 894.3 fold.

Regarding “N5_3F11 (CTGGGGAGTCCT; chemistry not given here)”, the “Fold” value was 1628.3 fold.

For the substance “N5_3G12 (CTGGGGAGTCCT; chemistry not given here)”, the “Fold” value came out at 756.5 fold.

As for “N5_4D7 (CTGGGGAGTCCT; chemistry not given here)”, the “Fold” value was 588.1 fold.
